Data: US20080293785A1, “SUBSTITUTED BENZOTHIAZOLE KINASE INHIBITORS” (priority 2006, published 2008)

Legend:
Assay type in all cases: biochemical
[1] = target: T1, CDK2:Cyclin A (Homo sapiens, UniProt P24941); experiment: CDK2 Screening Assay; conditions: 10 μM ATP, biotinylated histone-H1 peptide substrate, 33P-γ-ATP FlashPlate; read-out: Kinase IC50 CDK2
T1 construct: purchased Upstate Biotech, Lake Placid, N.Y
Experimental: (§1) A kinase reaction mixture was prepared containing 50 mM Tris.HCl pH=8, 10 mM MgCl2, 0.1 mM Na3PO4, 1 mM DTT, 10 μM ATP, 0.025 μM biotinylated histone-H1 peptide substrate and 0.2 μCuries per well ^33P-γ-ATP (2000-3000 Ci/mmol). 70 μL of the kinase reaction mixture was dispensed into the well of a streptavidin coated FlashPlate™ (Cat. # SMP103, NEN, Boston, Mass.). Then 1 μL of test compound stock in 100% DMSO was added to the wells resulting in a final concentration of 1% DMSO in the reaction well with a 100 μL final reaction well volume.
(§2) The CDK2:Cyclin A protein was diluted in 50 mM Tris.HCl pH=8.0, 0.1% BSA at a concentration of 1 ng per μL and 30 μL (30 ng enzyme per test well) was added to each well to initiate the reaction. The reaction was incubated for one hour at 30° C. At the end of the one hour incubation, the reaction was terminated by aspirating the mixture from the plate and washing the wells twice with PBS containing 100 mM EDTA. The histone-H1 biotinylated peptide substrate became immobilized on the Flashplate™ and the incorporation of ^33P-γ-ATP was measured by reading the plate on a scintillation counter. Inhibition of the enzymatic activity of CDK2 was measured by observing a reduced amount of ^33P-γ-ATP incorporated into the immobilized peptide.
The CDK2 kinase used was complexed with cyclin A and is commercially available (Upstate Biotech, Lake Placid, N.Y.).
(§3) An IC50 listed as >0.1, >1, >10 or >100 means no observed 50% inhibition at the indicated test concentration. […] ND means the compound was not tested in the assay specified.

[2] = target: T2, CDK1:Cyclin-B (Homo sapiens, UniProt P06493); experiment: CDK1 Screening Assay; conditions: 10 μM ATP, biotinylated histone-H1 peptide substrate, 33P-γ-ATP FlashPlate; read-out: Kinase IC50 CDK1
T2 construct: purchased New England Biolabs, Beverly, Mass; 6020; host or cells: insect cells
T2 sequence (P06493 whole entry): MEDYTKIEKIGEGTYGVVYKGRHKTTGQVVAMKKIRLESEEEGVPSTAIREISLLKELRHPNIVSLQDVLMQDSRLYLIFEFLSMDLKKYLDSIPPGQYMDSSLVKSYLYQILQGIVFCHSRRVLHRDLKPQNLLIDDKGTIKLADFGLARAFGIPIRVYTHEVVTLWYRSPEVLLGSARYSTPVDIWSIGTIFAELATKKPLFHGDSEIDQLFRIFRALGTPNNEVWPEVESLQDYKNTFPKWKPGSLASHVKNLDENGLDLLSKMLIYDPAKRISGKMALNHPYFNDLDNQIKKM
T2 sequence (P14635 whole entry partner): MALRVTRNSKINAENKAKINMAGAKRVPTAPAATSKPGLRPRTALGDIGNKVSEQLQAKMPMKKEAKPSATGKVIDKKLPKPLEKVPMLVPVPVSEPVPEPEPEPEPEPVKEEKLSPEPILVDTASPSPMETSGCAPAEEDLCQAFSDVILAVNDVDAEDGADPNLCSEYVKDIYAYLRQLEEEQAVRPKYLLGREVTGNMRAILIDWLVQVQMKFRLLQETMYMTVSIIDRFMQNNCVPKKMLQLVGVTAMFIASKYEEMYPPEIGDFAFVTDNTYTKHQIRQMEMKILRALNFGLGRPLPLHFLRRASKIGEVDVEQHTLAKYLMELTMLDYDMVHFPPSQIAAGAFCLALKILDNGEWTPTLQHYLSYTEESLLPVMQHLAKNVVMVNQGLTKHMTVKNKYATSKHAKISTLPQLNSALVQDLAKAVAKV
Experimental: as §1
as §2, with “CDK1:Cyclin-B” for “CDK2:Cyclin A”, “CDK1” for “CDK2”
The CDK1 kinase used was isolated from insect cells expressing both the human CDK1 catalytic subunit and its positive regulatory subunit cyclin B (New England Biolabs, Beverly, Mass., Cat. # 6020).
as §3

[3] = target: VEGF-R2 kinase domain (Rattus norvegicus, UniProt O08775); experiment: VEGF-R2 Screening Assay; conditions: 10 μM ATP, biotinylated PLC1 peptide substrate, 33P-γ-ATP FlashPlate; read-out: Kinase IC50 VEGFR
Sequence of VEGF-R2 kinase domain (O08775 786-1343): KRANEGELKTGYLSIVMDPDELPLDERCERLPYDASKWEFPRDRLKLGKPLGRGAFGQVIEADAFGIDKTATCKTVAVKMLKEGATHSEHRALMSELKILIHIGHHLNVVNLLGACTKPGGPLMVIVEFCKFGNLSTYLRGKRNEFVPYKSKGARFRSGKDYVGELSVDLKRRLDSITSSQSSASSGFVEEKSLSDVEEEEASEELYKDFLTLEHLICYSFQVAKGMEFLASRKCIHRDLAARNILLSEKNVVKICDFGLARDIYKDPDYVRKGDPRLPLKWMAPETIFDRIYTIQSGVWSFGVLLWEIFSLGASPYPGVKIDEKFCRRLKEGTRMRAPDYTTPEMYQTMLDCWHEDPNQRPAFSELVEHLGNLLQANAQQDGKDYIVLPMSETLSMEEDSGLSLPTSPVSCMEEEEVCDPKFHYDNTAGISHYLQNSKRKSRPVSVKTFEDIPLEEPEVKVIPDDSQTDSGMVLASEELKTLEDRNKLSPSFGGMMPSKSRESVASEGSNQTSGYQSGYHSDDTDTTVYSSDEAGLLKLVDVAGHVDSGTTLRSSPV
Experimental: as §1, with “biotinylated” for “biotinylated histone-H1”, “0.8” for “0.2”
The soluble rat tyrosine kinase containing an N-terminal 6×HIS tag was diluted in 50 mM Tris.HCl pH=8.0, 0.1% BSA at a concentration of 5 ng per μL and 30 μL (150 ng enzyme per test well) was added to each well to initiate the reaction. The reaction was incubated for one hour at 30° C. At the end of the one hour incubation, the reaction was terminated by aspirating the reaction mixture from the plate and washing the wells twice with PBS containing 100 mM EDTA. The PLC1 biotinylated peptide substrate became immobilized on the Flashplate™ and the incorporation of ^33P-γ-ATP was measured by reading the plate on a scintillation counter. Inhibition of the enzymatic activity of the VEGF-R was measured by observing a reduced amount of ^33P-γ-ATP incorporated into the immobilized peptide.
The VEGF-R kinase assay was carried out using the CDK kinase assay procedure except that the enzyme was replaced with the VEGF-R2 fusion protein containing a polyhistidine tag at the N-terminus followed by amino acids 786-1343 of the rat VEGF-R2 kinase domain (GenBank Accession #U93306).
as §3

Compound	IC50 [1] [µM]	IC50 [2] [µM]	IC50 [3] [µM]
O=C(Nc1cccc2sc(Nc3ccccc3)nc12)c1cc2c(Cl)cc(Cl)cc2[nH]1 [Cpd 59, 4,6-dichloro-1H-indole-2-carboxylic acid (2-phenylamino-benzothiazol-4-yl)-amide]	> 100	> 100	> 100
O=C(Nc1cccc2sc(Nc3ccccc3)nc12)c1ccncc1 [Cpd 28, N-(2-phenylamino-benzothiazol-4-yl)-isonicotinamide]	1.65	12.3	> 100
Cc1ccc(F)c(C(=O)Nc2cccc3sc(Nc4ccc(S(N)(=O)=O)cc4)nc23)c1F [Cpd 12, 2,6-difluoro-3-methyl-N-[2-(4-sulfamoyl-phenylamino)-benzothiazol-4-yl]-benzamide]	> 100	> 100	> 100
O=C(Nc1cccc2sc(Nc3ccccc3)nc12)c1ccco1 [Cpd 37, furan-2-carboxylic acid (2-phenylamino-benzothiazol-4-yl)-amide]	8.02	> 100	> 100
O=C(Nc1c(Cl)cccc1Cl)Nc1cccc2sc(Nc3ccccc3)nc12 [Cpd 8, 1-(2,6-dichloro-phenyl)-3-(2-phenylamino-benzothiazol-4-yl)-urea]	3.74	17.5	> 100
O=C(Nc1cccc2sc(Nc3ccccc3)nc12)c1cccc([N+](=O)[O-])c1 [Cpd 19, 3-nitro-N-(2-phenylamino-benzothiazol-4-yl)-benzamide]	10.8	> 100	> 100
CC(C)(C)C(=O)Nc1cccc2sc(Nc3ccccc3)nc12 [Cpd 57, 2,2-dimethyl-N-(2-phenylamino-benzothiazol-4-yl)-propionamide]	13.3	> 100	> 100
Cc1ccc(F)c(C(=O)N(C)c2cccc3sc(Nc4ccccc4)nc23)c1F [Cpd 62, 2,6-difluoro-3,N-dimethyl-N-(2-phenylamino-benzothiazol-4-yl)-benzamide]	> 100	> 100	> 100
O=C(Nc1ccccc1F)Nc1cccc2sc(Nc3ccccc3)nc12 [Cpd 7, 1-(2-fluoro-phenyl)-3-(2-phenylamino-benzothiazol-4-yl)-urea]	17.4	> 100	> 100
O=C(Nc1cccc2sc(Nc3ccccc3)nc12)c1c(Cl)cccc1Cl [Cpd 47, 2,6-dichloro-N-(2-phenylamino-benzothiazol-4-yl)-benzamide]	0.611	4.3	> 100
O=C(Nc1cccc2sc(Nc3ccccc3)nc12)c1ccncn1 [Cpd 15, pyrimidine-4-carboxylic acid (2-phenylamino-benzothiazol-4-yl)-amide]	89.1	> 100	> 100
CCC(=O)Nc1cccc2sc(Nc3ccccc3)nc12 [Cpd 26, N-(2-phenylamino-benzothiazol-4-yl)-propionamide]	3.67	> 100	> 100
Cc1ccc(Nc2nc3c(NC(=O)c4c(F)ccc(C)c4F)cccc3s2)cc1 [Cpd 14, 2,6-difluoro-3-methyl-N-(2-p-tolylamino-benzothiazol-4-yl)-benzamide]	3.09	> 100	> 100
Cc1cc(C(=O)Nc2cccc3sc(Nc4ccccc4)nc23)n(C)n1 [Cpd 13, 2,5-dimethyl-2H-pyrazole-3-carboxylic acid (2-phenylamino-benzothiazol-4-yl)-amide]	3.34	> 10	> 100
O=C(Nc1cccc2sc(Nc3ccccc3)nc12)c1ccc(-c2ccccc2)cc1 [Cpd 34, biphenyl-4-carboxylic acid (2-phenylamino-benzothiazol-4-yl)-amide]	13.6	> 100	> 100
NS(=O)(=O)c1ccc(C(=O)Nc2cccc3sc(Nc4ccccc4)nc23)cc1 [Cpd 17, N-(2-phenylamino-benzothiazol-4-yl)-4-sulfamoyl-benzamide]	3.05	> 100	> 100
O=C(Nc1cccc2sc(Nc3ccccc3)nc12)c1cc2ccccc2s1 [Cpd 50, benzo[b]thiophene-2-carboxylic acid (2-phenylamino-benzothiazol-4-yl)-amide]	> 100	> 100	> 100
Cc1cc(C)cc(C(=O)Nc2cccc3sc(Nc4ccccc4)nc23)c1 [Cpd 39, 3,5-dimethyl-N-(2-phenylamino-benzothiazol-4-yl)-benzamide]	1.03	7.15	> 100

Next, values leading:

IC50 [1] [µM]	IC50 [2] [µM]	IC50 [3] [µM]	Compound
0.22	1.31	> 100	O=C(Cn1cnnn1)Nc1cccc2sc(Nc3ccccc3)nc12 [Cpd 22, N-(2-phenylamino-benzothiazol-4-yl)-2-tetrazol-1-yl-acetamide]
4.02	42.7	≥ 100	O=C(Nc1cccc2sc(Nc3ccccc3)nc12)c1cccnc1 [Cpd 36, N-(2-phenylamino-benzothiazol-4-yl)-nicotinamide]
> 100	> 100	> 100	O=C(CCc1ccccc1)Nc1cccc2sc(Nc3ccccc3)nc12 [Cpd 54, 3-phenyl-N-(2-phenylamino-benzothiazol-4-yl)-propionamide]
0.65	3.64	5.96	O=C(Nc1cccc2sc(Nc3ccccc3)nc12)c1c(F)cccc1F [Cpd 10, 2,6-difluoro-N-(2-phenylamino-benzothiazol-4-yl)-benzamide]
11.6	> 100	> 100	O=C(Nc1cccc2sc(Nc3ccccc3)nc12)c1ccc2c(c1)OCO2 [Cpd 29, benzo[1,3]dioxole-5-carboxylic acid (2-phenylamino-benzothiazol-4-yl)-amide]
0.31	1.67	> 100	O=C(Nc1cccc2sc(Nc3ccccc3)nc12)c1c(Cl)cc(Cl)cc1Cl [Cpd 44, 2,4,6-trichloro-N-(2-phenylamino-benzothiazol-4-yl)-benzamide]
16.1	> 100	> 100	COc1cccc(OC)c1C(=O)Nc1cccc2sc(Nc3ccccc3)nc12 [Cpd 46, 2,6-dimethoxy-N-(2-phenylamino-benzothiazol-4-yl)-benzamide]
1.66	> 10	> 100	O=C(Nc1cccc2sc(Nc3ccccc3)nc12)c1c(F)cc(F)cc1F [Cpd 45, 2,4,6-trifluoro-N-(2-phenylamino-benzothiazol-4-yl)-benzamide]
6.27	> 100	> 100	O=C(Nc1cccc2sc(Nc3ccccc3)nc12)c1ccccc1Br [Cpd 32, 2-bromo-N-(2-phenylamino-benzothiazol-4-yl)-benzamide]
